Legend:
[1] = system: synthetic cyn promoter (pCyn-v2-GFP) in E. coli BW25113-Wt
[2] = system: E. coli cells; details: LB media, 37° C., OD600
[3] = system: cyn promoter/operator regulated by cynR (pCyn-v1-GFP); assay: GFP expression from pCyn-v1-GFP (native cyn promoter) induced with cyanate or azide, flow cytometry and bulk lysate fluorescence; assay type: cell-based, E. coli; details: 1 mM inducer
[4] = system: lac promoter in BL21 cells (pEC-GFP); assay: IPTG induction of GFP from lac promoter (pEC-GFP) in BL21 cells; assay type: cell-based, E. coli; details: 0.01 mM and 0.1 mM IPTG, 24 hours

[N-]=[N+]=[N-] [sodium azide]
azide concentration until which GFP expression increased [1]: 1 mM
detection limit of the synthetic promoter for azide [1]: > 10 µM
azide amount showing dramatic influence on the growth of the cells [2]: > 5 mM

N#CO [sodium cyanate]
GFP fluorescence of induced cells compared to uninduced control ([3]; BW25113 wildtype, 19 hours, flow cytometry): did not result in any GFP expression
GFP expression of induced cells ([3]; ΔcynS strain (BW25113-sCB1)): recovered the GFP expression

CC(C)S[C@@H]1O[C@H](CO)[C@H](O)[C@H](O)[C@H]1O [IPTG]
GFP expression at lower inducer concentrations over time [4]: GFP expression increased with time and reached maximum after 24 hours

Reference: patent US12655461B2 (priority 2020, dated 2026)
